The values that follow are results of earlier work, collected in patent publication US20140127179A1, “Natural Killer Cell Formulations” (SCIENTIFIC FORMULATIONS, LLC, priority 2012, published 2014).

Like-named read-outs stand apart in the source and are kept apart here.

Series [1] relates to Human promyelocytic leukemia cells HL60. To be noted: HL60 cultured with 30 nM for three years, injected into nu/nu mice.
The test system of a further series is 3T3-SV40 fibroblasts. The conditions noted are these: for fibroblast sensitivity to lytic activity of NKC: in several hours, NAC 10 mM.
Series [2] deals with Natural Killer cells (NKC). More on the design: key: +: Increased NK cell activity was shown; ±: mixed results. To be noted: summary of literature studies.
Series [3] has as its system transformed and embryonic cells.
The test system of series [4] is NK cell activity. To be noted: combinations of 1 mM thioproline and NAC, 5 μM Vitamin C and vitamin E; all ages studied.
A further series relates to metastases. The conditions noted are these: NAC administered with haemin and IL-2.
The next series has as its system cancer cells. More on the design: key: +: Direct Anti-cancer Activity was shown. The conditions noted are these: direct anti-cancer activity, summary of literature studies.
The conditions of series [5]: 42 men, 300 μg of Se.
For series [6] the following is noted: doses up to 5,000 mg.
In another series the test system is tumor cells. To be noted: inhibited platelet aggregation.
The subject of series [7] is interferon-gamma-producing NK cell. To be noted: nutritional intake of 10 mg.
Series [8] relates to NK cell activity of peripheral mononuclear cells.
Series [9] has as its system lymphokine-activated killer (LAK) cell. The conditions noted are these: PPS, MPS and LEN, the three combined; P<0.01.
Series [10] concerns NK cell and ADCC activity. The conditions noted are these: CLL patients, from 0.01 to 1 microgram/ml.
The subject of series [11] is NK cell activity. The conditions noted are these: 7 days after the drug injection.
The subject of another series is NK cell function. To be noted: two weeks of high-dose treatment, cancer patients.

As to `C=C1/C(=C\C=C2/CCC[C@]3(C)[C@@H]([C@H](C)CCCC(C)(C)O)CC[C@@H]23)C[C@@H](O)C[C@@H]1O` [1,25 D3, 1,25-dihydroxyvitamin D3], in series [1], the tumor growth result is given as “reduced rate of tumor growth”.
For `O=C(O)CCCCC1CCSS1` (stereo not drawn) [ALA, Alpha-Lipoic Acid], the “fibroblast sensitivity to lytic activity of NKC” value in the series with 3T3-SV40 fibroblasts is listed as “reduced significantly”. Also, in series [2], the “NKC Activity” value is “±”.
Regarding `COc1cc(/C=C/C(=O)CC(=O)/C=C/c2ccc(O)c(OC)c2)ccc1O` [Curcumin], the “NKC Activity” value in [2] is listed as “+”.
Turning to `O=c1c(-c2ccc(O)cc2)coc2cc(O)cc(O)c12` [Geinstein, Genistein], the “NKC Activity” value in series [2] is recorded as “+”.
`CC(C)=CCC[C@](C)(O)[C@H]1CC[C@]2(C)[C@@H]1[C@H](O)C[C@@H]1[C@@]3(C)CC[C@H](O[C@@H]4O[C@H](CO)[C@@H](O)[C@H](O)[C@H]4O)C(C)(C)[C@@H]3CC[C@]12C` [Ginsenoside Rh2]: the “growth of B16 melanoma cells” value in the series with B16 melanoma cells (mouse, in vivo) was “inhibits”. For the same molecule, the “NK cell activity in spleen cells” value with B16 melanoma cells (tumor-bearing nude mice) is listed as “increases”.
`CC(=O)N[C@@H](CS)C(=O)O` [NAC, N-Acetyl-Cysteine]: the “response to NK cell activity after removal of the antioxidant” value with 3T3-SV40 fibroblasts (18-20 h after NAC removal) is “resistance to NK cell activity”. Also, the “sensitivity to lysis by NKC mouse splenocytes” value in the series on 3T3-SV40 fibroblasts (18-20 h cultivation, 10 mM) is “did not change their sensitivity”. Moreover, in the series on 3T3-SV40 fibroblasts, the “fibroblast sensitivity to lytic activity of NKC” value was “did not change it”. Also, the “susceptibility of transformed and embryonic cells to NK cell activity” value in series [3] (10 mM) is “loss of susceptibility”. Also, the “susceptibility of murine embryonic fibroblasts (MEFs) to NK cell activity” value in [3] (pretreated with 10 mM) is recorded as “lose their susceptibility”. In addition, the NK cell activity result in the series on NK cell activity [4] is listed as “enhancement”. Moreover, the decrease in metastases with metastases is reported as 63%. The “NKC Activity” value in series [2] is on record as “+”.
In the case of `Oc1ccc(C=Cc2cc(O)cc(O)c2)cc1` [Resveratrol], the Anti-Cancer result in the series on cancer cells is given as “+”. In addition, the “NKC Activity” value in series [2] is “+”.
As to `[Se]` [Selenium], in the series on cancer cells, the Anti-Cancer result is recorded as “+”. The “counts of NKC and T lymphocytes expressing both sub-units of IL2R” value in [5] is “increased counts”. Also, in series [2], the “NKC Activity” value was “+”.
For `O=C1O[C@H]([C@@H](O)CO)C(O)=C1O` [Vitamin C, Ascorbic acid], in the series on cancer cells, the Anti-Cancer result was “+”. For the same molecule, the “NKC function of survivors versus baseline” value in the series on end-stage cancers (16 survivors, p<0.01) is “significantly higher”. Also, the patients still alive in the series on end-stage cancers (as of a mean of 6 months) is 16/20. Also, the NK cell activity result in the series on NK cell activity [4] is on record as “enhancement”. Further, the “NKC Activity” value in [2] is on record as “+”. Also, the “mutagenic lesions; negative effects on NK cell activity, apoptosis or cell cycle” value in series [6] is given as “did not induce mutagenic lesions nor had negative effects”. In addition, the “increase of NK cell cytotoxicity” value in the series with tumor cells was 285%.
With `C=C1CC[C@H](O)C/C1=C/C=C1\CCC[C@]2(C)[C@@H]([C@H](C)CCCC(C)C)CC[C@@H]12` [Vitamin D3], the Anti-Cancer result in the series with cancer cells was “+”. Moreover, the “NKC Activity” value in series [2] is “+”.
Consider `[Zn]` [Zinc], for which the Anti-Cancer entry with cancer cells is listed as “+”. In series [7], the “quantity of interferon-gamma-producing NK cell” value is recorded as “increases”. For the same molecule, the “NKC Activity” value in series [2] is “+”.
As for `O=C(O)[C@@H]1CSCN1` [thioproline], the NK cell activity entry with NK cell activity [4] was “enhancement”.
Consider Lentinan, for which the Anti-Cancer result in the series with cancer cells is “+”. Moreover, the “interferon level in the peripheral blood circulation” value in series [8] (cancer patients, 12 h following administration) is on record as “elevated”. Also, in series [8] (cancer patients, in 48 h), the “NK cell activity of peripheral mononuclear cells” value is listed as “enhanced”. The “patients with increased NK cell activity of lymphocytes” value in series [8] (n=11, i.v. 2 mg, on the following day) was “four”. Further, in series [9], the “reduction of the dose of rIL-2 needed to have the same LAK activity” value is recorded as 50%. The “enhancement of NK cell and ADCC activity” value in [10] was “dose-related increase”. The NK cell activity entry in the series on NK cell activity [11] is “significantly enhanced”. In addition, in [2], the “NKC Activity” value is listed as “+”.
As for Vitamin E, the Anti-Cancer entry with cancer cells is reported as “+”. In the series with NK cell activity [4], the NK cell activity entry is listed as “enhancement”. The “NKC Activity” value in [2] is “+”. Moreover, in the series with NK cell function, the NK cell function result is “enhanced”.
